Where a name gives a salt, the structure may show the parent alone.
Columns and labels:
[1] = tested on: Chinese hamster ovary cells; experiment: standard mitotic inhibition test employing Chinese hamster ovary cells; type: cell-based
From the text: The compounds of this invention are antimitotic compounds which adversely affects the growth of malignant cells. This activity is manifested in a standard mitotic inhibition test employing Chinese hamster ovary cells.

755 adenocarcinoma = experiment: transplanted tumors in mice: 755 adenocarcinoma; type: in vivo; conditions: intraperitoneal
Procedure: (§1) The bases of this invention and their salts preparable by the processes disclosed herein are active in vivo against transplanted tumors in mice.
(§2) The following table--Table 1--gives the results of experiments in which mice bearing the susceptible transplanted tumor were treated with a compound of this invention. In the table, column 1 gives the name of the compound; column 2, the tumor used; column 3 the dosage; and column 4, the percent inhibition of tumor growth (I) or prolongation of life (PL). The following dosage regimens were employed: every day for 7 or 10 days after tumor inoculation; or every fourth day (three doses) starting at the third day after tumor inoculation.

P1534(J) = experiment: transplanted tumors in mice: P1534(J) leukemia; type: in vivo; conditions: intraperitoneal
Procedure: as §1
as §2, with “The following dosage regimens were employed: every day for 7 or 10 days after tumor inoculation; or every fourth day (three doses) starting at the third day after tumor inoculation.” left out

P388/V leukemia = experiment: transplanted tumors in mice: P388/V leukemia; type: in vivo; conditions: dose and regimen not given, intraperitoneal
Procedure: as §1, §2

B16 melanoma = experiment: transplanted tumors in mice: B16 melanoma; type: in vivo; conditions: intraperitoneal; for percent Prolongation of life (PL): * = 1 or more indefinite survivors
Procedure: as §1, §2

tumor = conditions: background, U.S. Pat. No. 4,166,810 and Conrad et al.; cited from earlier work

4'-Acetylamino VLB
mitotic index ([1]; 2.0×10^-2 mcg/ml): + (15-25% inhibition)

CCC1(NC(C)=O)C[C@@H]2CN(CCc3c([nH]c4ccccc34)[C@@](C(=O)OC)(c3cc4c(cc3OC)N(C)[C@H]3[C@@](O)(C(=O)OC)[C@H](OC(C)=O)[C@]5(CC)C=CCN6CC[C@]43[C@@H]65)C2)C1 (some centres unmarked) [4'-acetylamino VLB sulfate]
Percent Inhibition (I) of tumor growth (755 adenocarcinoma; 10 days, 1 mg/kg): 18% | Percent Inhibition (I) of tumor growth (755 adenocarcinoma; 10 days, .5 mg/kg): 30% | Percent Inhibition (I) of tumor growth (755 adenocarcinoma; 10 days, .75 mg/kg): 29% | Percent Inhibition (I) of tumor growth (755 adenocarcinoma; 11 days, 3 mg/kg): 57% | Percent Inhibition (I) or Prolongation (PL) column: toxicity (755 adenocarcinoma; 11 days, 6 mg/kg): Toxic | Percent Inhibition (I) of tumor growth (755 adenocarcinoma; 11 days, .5 mg/kg): 33% | Percent Inhibition (I) of tumor growth (P1534(J); every third day, 5.0 mg/kg): 42% | Percent Inhibition (I) of tumor growth (P1534(J); every third day, 7.5 mg/kg): 71% | indefinite survivors (P388/V leukemia): * (1 or more indefinite survivors) | percent Prolongation of life (PL) (P388/V leukemia; * = 1 or more indefinite survivors): 20% | indefinite survivors (B16 melanoma; 3 days, 1.5 mg/kg): * (1 or more indefinite survivors) | percent Prolongation of life (PL) (B16 melanoma; 3 days, 1.5 mg/kg): 120% | indefinite survivors (B16 melanoma; 3 days, 3 mg/kg): * (1 or more indefinite survivors) | percent Prolongation of life (PL) (B16 melanoma; 3 days, 3 mg/kg): 74-201% | indefinite survivors (B16 melanoma; .75 mg/kg): * (1 or more indefinite survivors) | percent Prolongation of life (PL) (B16 melanoma; .75 mg/kg): 119%

CCC1(NC(C)=O)C[C@@H]2CN(CCc3c([nH]c4ccccc34)[C@@](C(=O)OC)(c3cc4c(cc3OC)N(C)[C@H]3[C@@](O)(C(=O)OC)[C@H](O)[C@]5(CC)C=CCN6CC[C@]43[C@@H]65)C2)C1 (some centres unmarked) [4'-acetylamino-4-desacetyl VLB]
Percent Inhibition (I) of tumor growth (P1534(J); 9.5-1.0 mg/kg): 2-11% | inhibition at 2 µg/mL ([1]; Cricetulus griseus, CHO, read-out: mitotic index): 25 to 50% | Percent Inhibition (I) of tumor growth (B16 melanoma; 10 1.0 (regimen and dose mg/kg)): 58% | Percent Inhibition (I) of tumor growth (B16 melanoma; .5 mg/kg): 23% | Percent Inhibition (I) of tumor growth (B16 melanoma; .75 mg/kg): 44%

CC[C@]1(O)C[C@@H]2CN(CCc3c([nH]c4ccccc34)[C@@](C(=O)OC)(c3cc4c(cc3OC)N(C)[C@H]3[C@@](O)(C(N)=O)[C@H](O)[C@]5(CC)C=CCN6CC[C@]43[C@@H]65)C2)C1 [vindesine, 4-desacetyl VLB C-3 carboxamide]
anti-tumor activity (tumor): very active
